Test results from publication PMC10361461, “Evaluating the solubility of compounds intended for intramammary infusion based upon tests conducted across a range of milk matrices” (PLOS ONE, 2023).
Values after ≈ are worked out from the molar mass of the structure shown. Where a name gives a salt, the structure may show the parent alone. Read-outs that look alike come from different tables or passages of the source. Marks after values point to notes of the source that are not given here.

Legend:
[1] = Solubility assessment in milk vehicles and 10 mM sodium phosphate buffer pH 6.8, HPLC analysis; assay type: physicochemical; details: for solubility at 60 min: thermodynamic from solid; for USP solubility classification: across tested media
Procedure: Solubility assessment was performed in all milk vehicles listed above. A 10 mM sodium phosphate buffer pH 6.8 was also included as a control. For each solubility sample, an excess amount of drug powder was weighed in a 20-mL glass vial. A suitable volume of the vehicle, pre-equilibrated to the desired temperature, was added to the drug powder. The samples were stirred for 60 minutes at 38°C or 20°–25°C [room temperature (RT)] prior to processing. The temperature of 38°C reflects the rectal temperature the healthy adult cow, 38°C [17].
Upon completion of this portion of the test procedure, approximately 2 mL of the solubility sample was passed through the Phenex-GF 1.2 μm filter to remove the excess drug solid. The filtration and solvent extraction steps were carried out immediately for each sample after the solubility testing was completed. All supplies used in the filtration were pre-equilibrated at the corresponding temperature. […] An aliquot of 0.5 mL filtrate was accurately transferred to a microcentrifuge tube followed by the addition of 1 mL extraction solvent. The extraction solvent was 0.1% TFA in acetonitrile (mobile phase channel B). The mixture was then centrifuged at 10,000 rpm, and about 1 mL of the supernatant was passed through a Phenex-RC 0.45 μm filter. The filtrate was collected in an HPLC autosampler vial and analyzed by the HPLC method described below.
A gradient HPLC method, described in Table 5, was used to analyze the concentration of all drug solubility samples after treatment.

[2] = cited from earlier work; for Solubility in Water at 25°C: descriptions and ranges based on USP definitions
[3] = cited from earlier work
[4] = cited from earlier work; remark: listed apart in the source
plasma protein = details: cited from earlier work
[5] = design: method as in earlier work; details: cited from earlier work
[6] = Solubility in milk related vehicles, previous study (Li et al., 2022); assay type: physicochemical; details: RT; data ref 6
[7] = room temperature, expressed as free form of cephapirin

CC(=O)OCC1=C(C(=O)O)N2C(=O)[C@@H](NC(=O)CSc3ccncc3)[C@H]2SC1 [Cephapirin Sodium, Cephapirin sodium]
solubility at 60 min ([1]; 10 mM sodium phosphate buffer, pH 6.8, aqueous buffer, room temperature, expressed as free form of cephapirin, read-out: Solubility, pH 6.8 buffer (control)): > 200 mg/mL | USP solubility classification [1]: freely soluble | solubility at 60 min ([1]; bovine, 38 °C, plasma or biological fluid, reconstituted and raw milk, read-out: Solubility in reconstituted and raw milk): > 500 mg/mL | solubility at 60 min ([1]; bovine, milk vehicles (all tested media except the pH 6.8 buffer), plasma or biological fluid, all tested media with the exception of the pH 6.8 aqueous buffer, read-out: Solubility in the tested media): > 350 mg/mL | solubility at 60 min ([1]; bovine, raw milk, plasma or biological fluid, 38°C, expressed as free form of cephapirin, read-out: Solubility, Raw Milk): > 500 mg/mL | solubility at 60 min ([1]; bovine, raw milk, plasma or biological fluid, room temperature, expressed as free form of cephapirin, read-out: Solubility, Raw Milk): > 350 mg/mL | solubility at 60 min ([1]; bovine, reconstituted whole milk powder (Nestle), plasma or biological fluid, room temperature, expressed as free form of cephapirin, read-out: Solubility, Reconstituted Whole Milk Powder (Nestle)): > 350 mg/mL | solubility at 60 min ([1]; bovine, skim milk, plasma or biological fluid, room temperature, expressed as free form of cephapirin, read-out: Solubility, Skim Milk): > 350 mg/mL | solubility at 60 min ([1]; bovine, whole milk, plasma or biological fluid, room temperature, expressed as free form of cephapirin, read-out: Solubility, Whole Milk): > 350 mg/mL | solubility at 60 min ([1]; reconstituted whole milk powder (Nestle), plasma or biological fluid, 38°C, expressed as free form of cephapirin, read-out: Solubility, Reconstituted Whole Milk Powder (Nestle)): > 500 mg/mL | Solubility in most organic solvents (descriptive) ([2]; most organic solvents): insoluble | Solubility in water (descriptive) [2]: very soluble

CC(=O)OCC1=C(C(=O)O)N2C(=O)[C@@H](NC(=O)CSc3ccncc3)[C@H]2SC1.CC(=O)OCC1=C(C(=O)O)N2C(=O)[C@@H](NC(=O)CSc3ccncc3)[C@H]2SC1.c1ccc(CNCCNCc2ccccc2)cc1 [Cephapirin Benzathine, Cephapirin benzathine]
Solubility, Raw Milk ([1]; 38°C, expressed as free form of cephapirin): 0.706 ± 0.021 mg/mL | Solubility, Reconstituted Whole Milk Powder (Nestle), Lot 1 ([1]; 38°C, milk powder Lot 1, expressed as free form of cephapirin): 0.740 ± 0.005 mg/mL | Solubility, Reconstituted Whole Milk Powder (Nestle), Lot 2 ([1]; 38°C, milk powder Lot 2, expressed as free form of cephapirin): 0.762 ± 0.028 mg/mL | USP solubility classification [1]: very slightly soluble | Solubility, Raw Milk [1, 7]: 0.476 ± 0.003 mg/mL | Solubility, Reconstituted Whole Milk Powder (Nestle) [1, 7]: 0.508 ± 0.006 mg/mL | Solubility, Skim Milk [1, 7]: 0.460 ± 0.007 mg/mL | Solubility, Whole Milk [1, 7]: 0.509 ± 0.010 mg/mL | Solubility, pH 6.8 buffer (control) [1, 7]: 0.352 ± 0.003 mg/mL | Solubility in 0.1 N HCl (descriptive) ([2]; 0.1 N HCl): soluble | Solubility in alcohol (descriptive) ([2]; alcohol): freely soluble | Solubility in ether (descriptive) ([2]; ether): practically insoluble | Solubility in toluene (descriptive) ([2]; toluene): practically insoluble | Solubility in water (descriptive) [2]: practically insoluble

CN(C)CCC=C1c2ccccc2CCc2ccccc21 [Amitriptyline HCl]
Solubility in Water at 25°C [2]: Freely Soluble (100–1000 mg/mL) | pKa ([3]; base): 9.45 (base) | Ionization state at pH 7 [3]: Positively charged | Log P ([4]; free base): 5.0 | Log P ([4]; pH 7.4): 3.0 | Plasma Protein Binding (plasma protein): ~ 95%

CN1C(C(=O)Nc2ccccn2)=C(O)c2ccccc2S1(=O)=O [Piroxicam]
Solubility in aqueous buffer ([5]; aqueous buffer): 0.287 ± 0.019 mg/mL (≈ 866 µM) | Solubility in skim milk ([5]; skim milk): 0.262 ± 0.005 mg/mL (≈ 791 µM) | Solubility in Water at 25°C [2]: Practically Insoluble (≤ 0.1 mg/mL)^c | Log P ([4]; pH 6.5): -1.33 | Log P ([4]; pH 6.6): 0.72 | Plasma Protein Binding (plasma protein): ~ 99%

C[C@]12C=CC(=O)C=C1CC[C@@H]1[C@@H]2[C@@H](O)C[C@@]2(C)[C@H]1CC[C@]2(O)C(=O)CO [Prednisolone]
pKa ([3]; in words): Non-ionizable | Ionization state at pH 7 [3]: Neutral | Log P [4]: ~ 1.6 | Plasma Protein Binding (plasma protein): 60–90%

C[C@@H]1C[C@H]2[C@@H]3CCC4=CC(=O)C=C[C@]4(C)[C@@]3(F)[C@@H](O)C[C@]2(C)[C@@]1(O)C(=O)CO [Dexamethasone]
Ratio of solubility, Reconstituted whole milk versus raw milk [6]: 1.16 | Ratio of solubility, Skim milk versus raw milk [6]: 1.04 | Ratio of solubility, Whole milk versus raw milk [6]: 1.08 | Ratio of solubility, pH 6.8 buffer versus raw milk [6]: 0.64 | Solubility in Water at 25°C [2]: Practically Insoluble (≤ 0.1 mg/mL) | pKa ([3]; in words): Non-ionizable | Ionization state at pH 7 [3]: Neutral | Plasma Protein Binding (plasma protein): ~77%

CC(=O)Nc1ccc(O)cc1 [Acetaminophen]
Ratio of solubility, Reconstituted whole milk versus raw milk [6]: 1.01 | Ratio of solubility, Skim milk versus raw milk [6]: 1.08 | Ratio of solubility, Whole milk versus raw milk [6]: 1.05 | Ratio of solubility, pH 6.8 buffer versus raw milk [6]: 1.05 | Solubility in Water at 25°C [2]: Sparingly Soluble (10–33 mg/mL) | Ionization state at pH 7 [3]: Neutral | Plasma Protein Binding (plasma protein): 20–25%
